Measured values: patent publication US5972351A, “Plasmodium falciparum MHC class I-restricted CTL epitopes derived from pre-erythrocytic stage antigens” (Isis Innovation Limited, priority 1992, dated 1999)

How the values were obtained:
B53 matched target cells = assay: CTL assay with HIV-2 gag restimulated CTL; assay type: cell-based, human; conditions: CTL from one HLA-B53 positive HIV-2 infected Gambian
HLA-B53 = target: T1, HLA-B53 (Homo sapiens, UniProt P01889, A329T/A93T/A95T/C349S/D201E/D98Y/E176V/E187L/E204Q/E69T/G107R/I218V/K202T/L105A/L119I/N104I/Q94N/R106L/R155S/R180L/S101N/S121R/S35A/S48A/T118I/V127L/V306I/V36M/Y140S/Y91F); assay: HLA assembly assay (peptide binding to HLA-B53); conditions: lysates of T2-B53 cells; all peptides initially tested at 4 μM
T1 construct: by transfection with a genomic clone of HLA-B53 using hygromycin selection; expressed in transfected cells; host or cells: T2-B53 (T2 cells transfected with a genomic clone of HLA-B53); lysates of 35S-methionine-labelled cells
Procedure: Briefly, the mutant cell line T2-B53 was derived from T2 cells of HLA type, HLA-A2, -B51, by transfection with a genomic clone of HLA-B53 using hygromycin selection. […] Peptide concentrations were determined with a Micro BCA colourimetric assay (Pierce). Peptides were added to lysates of ^35 S-methionine-labelled cells and incubated overnight at 4° C.^36. Stable assembled class I molecules were then precipitated with monoclonal antibodies W6/32^34 (reactive with all assembled class I molecules) or MHM5^41 (reactive with assembled HLA-B but not HLA-A molecules).

Sequence: ALSEGCTPYDINQMLNNCVGD [P1]
- recognition of peptide-pulsed targets by HIV 2-gag restimulated CTL (B53 matched target cells): recognised
- binding to HLA-B53 in the HLA assembly assay (HLA-B53): positive result
